From publication PMC6695355, “Alanine Scanning Studies of the Antimicrobial Peptide Aurein 1.2” (Probiotics and Antimicrobial Proteins, 2018)
≈ marks a conversion by molar mass, not a printed value. Where two headings read alike, the source gives them in different places. Where a SMILES comes first, the peptide text is derived from it.

What was measured:
[1] = tested on: S. aureus ATCC 25923 biofilm formation; format: cell-based, Staphylococcus aureus; details: ATCC 25923, 24 h
Procedure: (§1) The minimum inhibitory concentrations (MICs) of test compounds were assessed by broth microdilution method on 96-well plates, according to the guidelines of Clinical and Laboratory Standards Institute (CLSI). For this purpose, reference strains of bacteria: S. aureus ATCC 25923, E. faecalis PCM 2673, E. coli ATCC 25922, and P. aeruginosa ATCC 9027; and fungus: C. albicans ATCC 10231 were used (The Polish Collection of Microorganism, Polish Academy of Sciences, Wrocław, Poland). Bacteria at initial inoculums of 0.5 × 10^5 CFU/mL in Mueller Hinton Broth (MHB), and fungi at initial inoculums of 2 × 10^3 CFU/mL in RPMI-1640, were exposed to the compounds over the concentration range of 1–512 μg/mL. The polystyrene plates were incubated at 37 °C for 18 h with bacteria and for 24 h with C. albicans. The MIC was taken as the lowest concentration at which a noticeable growth of microorganisms was inhibited. Minimum biofilm eradication concentrations (MBECs) were determined using a previously described protocol. For this purpose, 96-well polystyrene flat-bottom plates and a resazurin (7-hydroxy-3H-phenoxazin-3-one 10-oxide) were used. In this assay, a specific feature of resazurin is utilized, which upon the contact with living cells is metabolized and reduced from the basic blue form to pink resorufin. Briefly, 24-h cultures of microorganisms were diluted 1,000-fold and 100 μL of that suspension was added into the test plates. After 24 h of incubation at 37 °C, the wells of the plates were rinsed three times with phosphate buffer saline (PBS) to remove non-adherent cells. Subsequently, 100 μL of test compounds in concentration range (diluted in appropriate media) were added to each well. After 24 h of incubation at 37 °C, 20 μL of the resazurin (4 mg/mL) was added. The MBEC was read after 1 h. Additionally, anti-adhesive properties of the compounds were also analyzed. The assay was conducted on 96-well polystyrene flat-bottom plates. The preparation of inoculums was followed by a 500-fold dilution of 24-h cultures of microorganisms. Briefly, to evaluate the effect of the peptides in preventing biofilm formation, 50 μL of compounds in concentration range, diluted in appropriate medium, were prepared. Subsequently, the 50 μL of the bacterial/fungal inoculums were added to reach the same microbial density as that in MBEC assay. After 24 h of incubation at 37 °C, the wells were rinsed three times with PBS and the fresh media with resazurin (0.6 mg/mL) were added. Then, after 1 h of incubation, the minimum biofilm inhibitory concentrations (MBIC) were read. MBECs as well as MBICs were determined as the lowest concentration at which the reduction of resazurin was lower or equal (10% ± 0.5%) as compared to positive (100%) and negative (0%) controls. All experiments were performed in triplicate.

[2] = tested on: S. aureus ATCC 25923 biofilm; format: cell-based, Staphylococcus aureus; details: ATCC 25923, 24 h
Procedure: as §1

S. aureus ATCC 25923 = format: cell-based, Staphylococcus aureus; details: ATCC 25923, 18 h
Procedure: as §1

[3] = tested on: E. faecalis PCM 2673 biofilm formation; format: cell-based, Enterococcus faecalis; details: 24 h
Procedure: as §1

[4] = tested on: E. faecalis PCM 2673 biofilm; format: cell-based, Enterococcus faecalis; details: 24 h
Procedure: as §1

E. faecalis PCM 2673 = format: cell-based, Enterococcus faecalis; details: PCM 2673, 18 h
Procedure: as §1

[5] = tested on: E. coli ATCC 25922 biofilm formation; format: cell-based, Escherichia coli; details: ATCC 25922, 24 h
Procedure: as §1

[6] = tested on: E. coli ATCC 25922 biofilm; format: cell-based, Escherichia coli; details: ATCC 25922, 24 h
Procedure: as §1

E. coli ATCC 25922 = format: cell-based, Escherichia coli; details: ATCC 25922, 18 h
Procedure: as §1

[7] = tested on: P. aeruginosa ATCC 9027 biofilm formation; format: cell-based, Pseudomonas aeruginosa; details: ATCC 9027, 24 h
Procedure: as §1

[8] = tested on: P. aeruginosa ATCC 9027 biofilm; format: cell-based, Pseudomonas aeruginosa; details: ATCC 9027, 24 h
Procedure: as §1

P. aeruginosa ATCC 9027 = format: cell-based, Pseudomonas aeruginosa; details: ATCC 9027, 18 h
Procedure: as §1

[9] = tested on: C. albicans ATCC 10231 biofilm formation; format: cell-based, Candida albicans; details: ATCC 10231, 24 h
Procedure: as §1

[10] = tested on: C. albicans ATCC 10231 biofilm; format: cell-based, Candida albicans; details: ATCC 10231, 24 h
Procedure: as §1

C. albicans ATCC 10231 = format: cell-based, Candida albicans; details: ATCC 10231, 24 h
Procedure: as §1

[11] = tested on: human red blood cells (RBCs); experiment: Hemolysis assay; format: cell-based
Procedure: The hemolytic activity of the peptides was determined using fresh human red blood cells (RBCs) collected from a healthy human donor according to the procedure described in the literature. Fresh RBCs with EDTA as anticoagulant were rinsed three times with a PBS by centrifugation at 800×g for 10 min and resuspension in PBS. Serial dilution of the peptides in PBS (1–256 μg/mL) on 96-well polystyrene plates was prepared and the stock solution of RBCs was added up to a final volume of 100 μL with a 4% concentration of erythrocytes (v/v). The control wells for 0 and 100% hemolysis contained of RBCs suspended in PBS and 1% of Triton-X 100, respectively. Subsequently, the plates were incubated for 1 h at 37 °C and then centrifuged at 800×g for 10 min at 4 °C (Sorvall ST 16R Centrifuge, Thermo Scientific). After centrifugation, the supernatant was carefully […] to new microtiter plates and the release of hemoglobin was measured at 540 nm (Multiskan™ GO Microplate Spectrophotometer, Thermo Scientific). All experiments were conducted in triplicate.

in vitro = in vitro ADME; details: bovine, serum
Procedure: To assess serum stability, the peptides (0.5 mg) were dissolved in 4 mL of 25% (v/v) fetal bovine serum (FBS) in PBS and incubated at 37 °C. The aliquots of 100 μL of the test samples were transferred to 96-well polystyrene plates in triplicate for each time point. Samples were quenched at zero time (t0) and after 6 h of incubation at 37 °C by addition of 100 μL of ice-cold acetonitrile and stored at 4 °C for 10 min. Afterwards, the samples were centrifuged at 13,000×g for 20 min at 4 °C and diluted 1:1 with HPLC-grade water. All samples were analyzed using the Waters Alliance e2695 system with Waters Acquity QDa Detector (software–Empower®3). Analyses were conducted on an Agilent Zorbax SB-C18 RP-18 column (4.6 × 50 mm, 1.8-μm particle size, 80-Å pore size) using a linear 30–60% acetonitrile (B) gradient in deionized water (A) over 6 min at 25.0 ± 0.1 °C, at a flow rate of 0.5 mL/min and MS working in selected ion recording (SIR) mode (A—0.1% aqueous formic acid (FA) and B—0.1% FA in acetonitrile). The percentage of peptide remaining intact was calculated from peak areas of samples at t0 and after 6 h of incubation in serum (the % of remaining peptide = peak area after 6 h/peak area at t0). The mass-to-charge ratios selected for SIR mode were based on values obtained from full spectrum analysis of each peptide and are presented in Table 1.

SMILES | MBIC, S. aureus ATCC 25923 [1] [µg/mL] | MBEC, S. aureus ATCC 25923 [2] [µg/mL] | MIC, S. aureus ATCC 25923 (S. aureus ATCC 25923) [µg/mL] | MBIC, E. faecalis PCM 2673 [3] [µg/mL] | MBEC, E. faecalis PCM 2673 [4] [µg/mL] | MIC, E. faecalis PCM 2673 (E. faecalis PCM 2673) [µg/mL] | MBIC, E. coli ATCC 25922 [5] [µg/mL] | MBEC, E. coli ATCC 25922 [6] [µg/mL] | MIC, E. coli ATCC 25922 (E. coli ATCC 25922) [µg/mL] | MBIC, P. aeruginosa ATCC 9027 [7] [µg/mL] | MBEC, P. aeruginosa ATCC 9027 [8] [µg/mL] | MIC, P. aeruginosa ATCC 9027 (P. aeruginosa ATCC 9027) [µg/mL] | MBIC, C. albicans ATCC 10231 [9] [µg/mL] | MBEC, C. albicans ATCC 10231 [10] [µg/mL] | MIC, C. albicans ATCC 10231 (C. albicans ATCC 10231) [µg/mL] | Percentage of hemolysis at 1 μg/mL ([11]; red cells of human, 1 h) [%] | Percentage of hemolysis at 4 μg/mL ([11]; red cells of human, 1 h) [%] | Percentage of hemolysis at 8 μg/mL ([11]; red cells of human, 1 h) [%] | Percentage of hemolysis at 16 μg/mL ([11]; red cells of human, 1 h) [%] | Percentage of hemolysis at 32 μg/mL ([11]; red cells of human, 1 h) [%] | other results
CC[C@H](C)[C@H](NC(=O)[C@H](C)NC(=O)[C@H](Cc1ccccc1)NC(=O)[C@H](CC(C)C)NC(=O)CN)C(=O)N[C@H](C(=O)N[C@@H](CCCCN)C(=O)N[C@@H](CCCCN)C(=O)N[C@H](C(=O)N[C@@H](C)C(=O)N[C@@H](CCC(=O)O)C(=O)N[C@@H](CO)C(=O)N[C@@H](Cc1ccccc1)C(N)=O)[C@@H](C)CC)[C@@H](C)CC [Peptide D4A] (H-GLFAIIKKIAESF-NH2) | 16 | 16 | 16 (≈ 11.1 µM) | 32 | 128 | 32 (≈ 22.3 µM) | 8 | 32 | 8 (≈ 5.57 µM) | 64 | 512 | 64 (≈ 44.6 µM) | 2 | 512 | 64 (≈ 44.6 µM) | 0.2 | 0.3 | 0.3 | 0.3 | 1.5 | Percentage of hemolysis at 2 μg/mL ([11]; red cells of human, 1 h, 2): 0.3%; Percentage of hemolysis at 64 μg/mL ([11]; red cells of human, 1 h): 6.6%; Percentage of hemolysis at 128 μg/mL ([11]; red cells of human, 1 h): 23.2%; Percentage of hemolysis at 256 μg/mL ([11]; red cells of human, 1 h): 61.0%; remaining at 6 h, 0.125 mg/mL (in vitro): 44%
CC[C@H](C)[C@H](NC(=O)[C@H](CCCCN)NC(=O)[C@H](CCCCN)NC(=O)[C@@H](NC(=O)[C@@H](NC(=O)[C@H](CC(=O)O)NC(=O)[C@H](Cc1ccccc1)NC(=O)[C@H](CC(C)C)NC(=O)CN)[C@@H](C)CC)[C@@H](C)CC)C(=O)N[C@@H](C)C(=O)N[C@@H](C)C(=O)N[C@@H](CO)C(=O)N[C@@H](Cc1ccccc1)C(N)=O [Peptide E11A] (H-GLFDIIKKIAASF-NH2) | 32 | 16 | 32 (≈ 22.5 µM) | 32 | > 512 | 32 (≈ 22.5 µM) | 16 | 64 | 16 (≈ 11.3 µM) | 64 | 512 | 64 (≈ 45 µM) | 4 | > 512 | 32 (≈ 22.5 µM) | 0.1 | 0.2 | 0.1 | 0.1 | 0.4 | Percentage of hemolysis at 2 μg/mL [11]: 17.4%; Percentage of hemolysis at 64 μg/mL ([11]; red cells of human, 1 h): 2.9%; Percentage of hemolysis at 128 μg/mL ([11]; red cells of human, 1 h): 11.9%; Percentage of hemolysis at 256 μg/mL ([11]; red cells of human, 1 h): 40.2%; remaining at 6 h, 0.125 mg/mL (in vitro): 17%
